Measurements reported in US11279703B2, “Fused pyrimidine compounds as BRD4 and JAK2 dual inhibitors and methods for use thereof” (APTOSE BIOSCIENCES INC., priority 2016, dated 2022).
pIC50: −log10 of the molar value.

Legend:
BRD4-BD1 = BRD4-BD1 (Homo sapiens (Human), UniProt O60885); assay: AlphaLisa bromodomain binding assay, BRD4-BD1; details: Table 6; read-out: BRD4(1) IC50
BRD4-BD2 = BRD4-BD2 (Homo sapiens (Human), UniProt O60885); assay: AlphaLisa bromodomain binding assay, BRD4-BD2; details: Table 6; read-out: BRD4(2) IC50
Text: (§1) An AlphaLisa assay was used to observe bromodomain binding and measure IC50s for the compounds disclosed herein. An AlphaLisa assay is a bead-based assay used to detect interactions between bromodomains and polyacetylated histone peptides. Donor and acceptor beads bound to target and ligand are brought into proximity by this protein-protein interaction.
(§2) Equipment Required • 1. […] Plate centrifuge • 3. Plate shaker • 4. […] Single channel and multi-channel pipettes • 6. Microplate reader (Pherastar)
(§3) Stock and Final Assay Concentrations (FAC) • 1. All reference and test compounds are made at a concentration of 10 mM in DMSO. Compounds are serially diluted in DMSO and a FAC starting from 10 μM to 10 point 3 fold serial dilutions is arrived. FAC of DMSO is 1%. • 2. Enzyme stock and FAC
(§4) Biotinylated substrate (Acetylated histone H4, biotinylated substrate—cat no. AS64989-025, Anaspec) stock and FAC
(§5) • 4. Acceptor and donor beads stock and FAC
(§6) Buffers • For the enzyme and substrate dilution following buffer is used (for 50 ml) • HEPES: 50 mM 2.5 ml • NaCl: 25 mM 1.25 ml • DTT: 10 mM 0.05 ml • BSA: 0.1% 0.05 g • MilliQ water: 45.7 ml • For dilution of acceptor and donor beads AlphaLISA 5× epigenetics Buffer Perkin Elmer (Cat: AL008C) is used at 1× concentration.
(§7) Procedure • 1. […] Tap the plate gently • 3. […] Cover with plate sealer • 5. […] Incubate the plate at room temperature for 10 minutes • 7. Add 10 μl of the substrate • 8. Cover with plate sealer • 9. […] Cover with plate sealer • 14. […] Cover with plate sealer • 18.
(§8) The percent inhibition is calculated in the excel analysis template and the IC50 values are subsequently determined using a sigmoidal dose-response curve (variable slope) using GraphPad Prism® 5 software.

BRD2-BD1 = BRD2-BD1 (Homo sapiens (Human), UniProt P25440); assay: AlphaLisa bromodomain binding assay, BRD2-BD1; details: Table 6; read-out: BRD2(1) IC50
Text: as §1, §2, §3, §4, §5, §6, §7, §8

BRD3-BD1 = BRD3-BD1 (Homo sapiens (Human), UniProt Q15059); assay: AlphaLisa bromodomain binding assay, BRD3-BD1; details: Table 6; read-out: BRD3(1) IC50
Text: as §1, §2, §3, §4, §5, §6, §7, §8

BRDT-BD1 = BRDT-BD1 (Homo sapiens (Human), UniProt Q58F21); assay: AlphaLisa bromodomain binding assay, BRDT-BD1; details: Table 6; read-out: BRDT(1) IC50
Text: as §1, §2, §3, §4, §5, §6, §7, §8

JAK2 = JAK2 (Homo sapiens (Human), UniProt O60674); assay: HTRF kinase assay, JAK2; type: biochemical; details: Table 6
JAK1 = JAK1 (Homo sapiens (Human), UniProt P23458); assay: HTRF kinase assay, JAK1; type: biochemical; details: Table 6
Text: (§9) A kinase assay with HTRF was used to observe JAK activity and calculate the IC50s of compounds disclosed herein. HTRF is an enzymatic assay used to determine the amount of phosphorylated peptide. FRET (Fluorescence Resonance Energy Transfer) is based on the transfer of energy between two fluorophores—a donor and an acceptor—when in close proximity. Molecular interactions between biomolecules can be assessed by coupling each partner with a fluorescent label and by detecting the level of energy transfer. The amount of phopshorylated peptide can be detected using a combination of a Eu 3+Cryptate labeled anti-phospho residue antibody, SA-XL665 and a biotinylated substrate. The signal is proportional to the concentration of phospho-residues.
(§10) Equipment Required • 1. […] Plate centrifuge • 3. Plate shaker • 4. […] Single channel and multi-channel pipettes • 6. Microplate reader (Pherastar)]
as §3, with “arrived. For Ruxolitinib the starting FAC is 1 μM.” for “arrived.”
(§11) • JAK-1: Invtirogen Cat: PR8767C • JAK-2: Invtirogen Cat: PR7820B • JAK-3: Invtirogen Cat: PR7507B • 3. Substrate (synthetic peptide-Biotinylated-N-terminal tag-[…] from Biopeptide) stock and FAC
(§12) • Adenosine 5′-triphosphate disodium salt hydrate: Sigma Cat: A26209 • 5. […] Buffers • Base buffer (for 50 ml)
(§13) • HTRF buffer: • 50 mM Tris-HCl, pH—7.5 • 100 mM NaCl • 0.1% BSA • 0.05% Tween20 • 0.5 mM EDTA
(§14) To a 384 well black-plate: • 1. Add 17 μL of the buffer to each well of the 384-well black plate • 2. […] Add 5 μl of the enzyme to each well of the plate • 4. Add 10 μl of the substrate and ATP mix to all the wells • 5. Cover with plate sealer • 6. […] Incubate at room temperature for 1 hour on shaker • 8. […] Add 37.5 μL of the HTRF mix to these wells. • 9. Incubate the plate at room temperature on shaker for 45 minutes. • 10.
as §8

JAK3 = JAK3 (Homo sapiens (Human), UniProt P52333); assay: HTRF kinase assay, JAK3; type: biochemical; details: Table 6
Text: as §9, §10
as §3, with “arrived. For Ruxolitinib the starting FAC is 1 μM.” for “arrived.”
as §11, §12, §13, §14, §8

BRD2-BD1, sequence (P25440 74-180): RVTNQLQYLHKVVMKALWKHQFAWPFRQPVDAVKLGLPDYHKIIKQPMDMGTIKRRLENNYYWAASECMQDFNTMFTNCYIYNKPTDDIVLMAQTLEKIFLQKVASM
JAK2, sequence (O60674 whole entry): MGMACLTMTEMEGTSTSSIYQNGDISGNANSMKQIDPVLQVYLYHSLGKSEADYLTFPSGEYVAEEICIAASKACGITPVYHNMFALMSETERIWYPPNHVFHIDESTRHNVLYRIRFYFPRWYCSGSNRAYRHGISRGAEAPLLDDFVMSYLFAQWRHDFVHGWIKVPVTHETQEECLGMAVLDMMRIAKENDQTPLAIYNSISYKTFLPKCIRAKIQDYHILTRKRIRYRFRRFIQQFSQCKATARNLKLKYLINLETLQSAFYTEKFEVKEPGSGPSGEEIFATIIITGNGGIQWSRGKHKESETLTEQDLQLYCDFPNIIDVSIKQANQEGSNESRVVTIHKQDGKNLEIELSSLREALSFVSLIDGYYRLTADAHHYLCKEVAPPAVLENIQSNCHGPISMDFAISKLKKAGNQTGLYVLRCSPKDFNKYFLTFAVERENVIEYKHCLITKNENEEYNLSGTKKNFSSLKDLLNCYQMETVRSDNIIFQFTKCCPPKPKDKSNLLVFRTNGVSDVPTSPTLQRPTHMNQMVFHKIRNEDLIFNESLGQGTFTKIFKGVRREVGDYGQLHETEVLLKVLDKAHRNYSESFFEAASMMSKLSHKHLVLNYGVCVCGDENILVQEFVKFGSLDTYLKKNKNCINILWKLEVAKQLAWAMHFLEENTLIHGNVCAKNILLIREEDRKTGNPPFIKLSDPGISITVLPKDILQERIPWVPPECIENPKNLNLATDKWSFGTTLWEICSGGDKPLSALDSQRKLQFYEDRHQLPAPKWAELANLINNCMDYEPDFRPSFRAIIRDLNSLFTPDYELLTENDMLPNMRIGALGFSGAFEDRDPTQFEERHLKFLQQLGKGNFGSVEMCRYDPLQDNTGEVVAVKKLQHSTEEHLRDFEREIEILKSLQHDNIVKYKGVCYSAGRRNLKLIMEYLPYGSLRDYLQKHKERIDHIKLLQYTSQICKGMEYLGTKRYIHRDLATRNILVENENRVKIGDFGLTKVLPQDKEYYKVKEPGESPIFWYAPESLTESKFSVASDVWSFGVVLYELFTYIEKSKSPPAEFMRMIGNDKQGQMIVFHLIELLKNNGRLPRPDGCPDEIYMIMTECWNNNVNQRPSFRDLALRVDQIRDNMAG
JAK3, sequence (P52333 whole entry): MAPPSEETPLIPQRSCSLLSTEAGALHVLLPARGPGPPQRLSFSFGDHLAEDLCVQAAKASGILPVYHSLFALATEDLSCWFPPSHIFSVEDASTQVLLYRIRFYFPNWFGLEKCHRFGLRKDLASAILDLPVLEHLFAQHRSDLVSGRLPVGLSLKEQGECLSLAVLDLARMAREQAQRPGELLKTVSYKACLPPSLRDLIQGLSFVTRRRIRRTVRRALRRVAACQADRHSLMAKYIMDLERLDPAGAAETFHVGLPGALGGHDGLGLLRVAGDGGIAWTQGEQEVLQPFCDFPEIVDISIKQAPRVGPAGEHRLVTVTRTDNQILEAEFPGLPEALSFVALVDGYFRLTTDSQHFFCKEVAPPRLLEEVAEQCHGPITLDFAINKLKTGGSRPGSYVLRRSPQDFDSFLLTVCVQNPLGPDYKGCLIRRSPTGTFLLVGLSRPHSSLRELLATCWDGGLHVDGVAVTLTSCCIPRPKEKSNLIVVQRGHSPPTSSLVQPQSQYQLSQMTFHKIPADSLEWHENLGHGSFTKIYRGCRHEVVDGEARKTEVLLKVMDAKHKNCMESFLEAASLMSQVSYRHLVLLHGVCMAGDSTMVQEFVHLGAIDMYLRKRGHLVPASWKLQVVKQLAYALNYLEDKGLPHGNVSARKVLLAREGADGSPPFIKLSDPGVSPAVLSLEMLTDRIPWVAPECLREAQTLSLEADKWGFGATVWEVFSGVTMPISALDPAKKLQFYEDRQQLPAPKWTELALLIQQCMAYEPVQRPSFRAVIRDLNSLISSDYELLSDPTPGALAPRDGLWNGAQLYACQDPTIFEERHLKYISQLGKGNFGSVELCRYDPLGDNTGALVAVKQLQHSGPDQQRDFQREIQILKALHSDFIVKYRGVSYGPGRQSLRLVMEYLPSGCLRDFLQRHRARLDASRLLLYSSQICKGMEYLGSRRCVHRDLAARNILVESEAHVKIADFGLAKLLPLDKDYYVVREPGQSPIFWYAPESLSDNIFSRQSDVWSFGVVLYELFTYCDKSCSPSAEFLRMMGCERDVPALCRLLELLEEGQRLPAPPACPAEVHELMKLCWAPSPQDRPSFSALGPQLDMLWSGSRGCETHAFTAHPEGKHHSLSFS
JAK1, sequence (P23458 whole entry): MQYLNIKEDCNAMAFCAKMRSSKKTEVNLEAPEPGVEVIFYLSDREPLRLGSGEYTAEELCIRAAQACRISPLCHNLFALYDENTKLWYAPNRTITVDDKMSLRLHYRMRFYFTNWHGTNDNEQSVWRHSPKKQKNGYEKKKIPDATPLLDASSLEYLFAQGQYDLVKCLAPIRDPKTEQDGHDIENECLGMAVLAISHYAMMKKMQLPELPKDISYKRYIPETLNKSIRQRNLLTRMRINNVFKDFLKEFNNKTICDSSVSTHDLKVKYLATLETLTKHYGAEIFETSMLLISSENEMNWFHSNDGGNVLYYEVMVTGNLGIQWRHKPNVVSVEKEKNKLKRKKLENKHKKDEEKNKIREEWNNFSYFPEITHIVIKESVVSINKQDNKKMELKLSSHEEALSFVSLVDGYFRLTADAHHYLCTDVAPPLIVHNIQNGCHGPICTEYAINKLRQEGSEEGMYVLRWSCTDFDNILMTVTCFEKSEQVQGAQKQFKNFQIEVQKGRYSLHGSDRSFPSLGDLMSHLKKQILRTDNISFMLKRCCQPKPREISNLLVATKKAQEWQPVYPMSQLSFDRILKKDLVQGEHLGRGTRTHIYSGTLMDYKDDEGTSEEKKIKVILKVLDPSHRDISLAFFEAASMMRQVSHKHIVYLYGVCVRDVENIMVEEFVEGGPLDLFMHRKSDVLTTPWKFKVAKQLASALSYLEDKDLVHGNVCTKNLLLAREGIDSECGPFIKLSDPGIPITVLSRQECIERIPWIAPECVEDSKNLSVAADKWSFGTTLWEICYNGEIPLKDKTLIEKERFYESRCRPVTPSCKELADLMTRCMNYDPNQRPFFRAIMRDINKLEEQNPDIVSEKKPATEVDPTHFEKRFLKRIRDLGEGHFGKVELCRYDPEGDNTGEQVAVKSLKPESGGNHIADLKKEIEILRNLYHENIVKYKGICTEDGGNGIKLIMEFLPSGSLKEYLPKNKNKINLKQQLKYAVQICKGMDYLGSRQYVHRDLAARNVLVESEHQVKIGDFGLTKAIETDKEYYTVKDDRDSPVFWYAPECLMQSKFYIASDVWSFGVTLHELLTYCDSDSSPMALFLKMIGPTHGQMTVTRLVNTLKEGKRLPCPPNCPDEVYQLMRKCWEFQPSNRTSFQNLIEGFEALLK
BRD3-BD1, sequence (Q15059 34-140): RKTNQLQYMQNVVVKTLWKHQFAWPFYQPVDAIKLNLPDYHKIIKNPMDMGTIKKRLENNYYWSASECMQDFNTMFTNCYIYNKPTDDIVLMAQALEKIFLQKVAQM

pIC50 (BRD4-BD1)	pIC50 (BRD4-BD2)	pIC50 (BRD2-BD1)	pIC50 (BRD3-BD1)	pIC50 (BRDT-BD1)	pIC50 (JAK2)	pIC50 (JAK1)	pIC50 (JAK3)	Structure (SMILES)
6.94	6.92	6.45	7.08	6.53	7.21	5.00	6.55	CC(C)(C)S(=O)(=O)Nc1cc(-n2ccc3cnc(Nc4cc(F)c5c(c4)CC4CNCCN54)nc32)ccc1F (centres unmarked) [drawing 465]
6.42	6.31	5.94	6.61	6.00	7.72	5.96	6.47	CN1CCN(c2ccc(Nc3ncc4ccn(-c5cccc(NS(=O)(=O)C(C)(C)C)c5)c4n3)cc2C#N)CC1
6.90	7.27	6.33	6.80	6.57	7.28	6.00	6.39	CC(C)(C)S(=O)(=O)Nc1cccc(-n2ccc3cnc(Nc4ccc(C(=O)N5CCNCC5)c(F)c4)nc32)c1 [drawing 462]
6.45	6.14	5.72	6.08	5.60	8.60	6.61	7.16	CN1CCN(c2ccc(Nc3ncc4ccn(-c5cccc(NS(=O)(=O)C6CC6)c5)c4n3)cc2)CC1 [drawing 278]
7.22	7.19	6.67	7.23	6.93	7.48	5.68	6.57	CC(C)(C)S(=O)(=O)Nc1cc(-n2ccc3cnc(Nc4ccc(N5CCNCC5)c(F)c4)nc32)ccc1F [drawing 428]
6.63	6.69	6.22	6.71	6.48	7.96	6.13	7.22	CN(C)C1CCN(c2ccc(Nc3ncc4scc(-c5ccc(F)c(NS(=O)(=O)C6(C)CC6)c5)c4n3)cc2F)CC1
6.36	6.31	5.54	6.19	5.95	7.74	6.37	6.90	CN1CCN(c2ccc(Nc3ncc4ccn(-c5cccc(NS(=O)(=O)C(C)(C)C)c5)c4n3)cc2F)CC1
6.97	7.04	6.53	6.96	6.75	8.10	6.03	7.01	CN(C)C1CCN(c2ccc(Nc3ncc4scc(-c5ccc(F)c(NS(=O)(=O)C(C)(C)C)c5)c4n3)cc2F)CC1
6.96	6.88	6.31	7.00	6.55	8.70	7.36	7.74	CC(C)(C)S(=O)(=O)Nc1cccc(-c2csc3cnc(Nc4ccc5c(c4)CCN4CCNCC54)nc23)c1 (centres unmarked)
6.91	7.07	6.44	7.01	6.73	7.41	5.82	6.76	CNC1CCN(c2ccc(Nc3ncc4ccn(-c5ccc(F)c(NS(=O)(=O)C(C)(C)C)c5)c4n3)cc2F)CC1 [drawing 456]
7.20	7.06	6.64	7.31	6.85	7.57	5.68	6.71	CN(C)C1CCN(c2ccc(Nc3ncc4ccn(-c5ccc(F)c(NS(=O)(=O)C(C)(C)C)c5)c4n3)cc2F)CC1 [drawing 366]
7.10	7.07	6.63	7.09	6.73	7.40	5.43	6.69	CC(C)(C)S(=O)(=O)Nc1cc(-n2ccc3cnc(Nc4cc(F)c5c(c4)CC4CNCCN54)nc32)ccc1F (centres unmarked) [drawing 443]
6.76	7.21	6.20	6.79	6.39	8.14	6.40	7.09	CN(C)C1CCN(c2ccc(Nc3ncc4ccn(-c5cccc(NS(=O)(=O)C(C)(C)C)c5)c4n3)cc2)CC1 [drawing 317]
6.61	7.54	6.50	6.93	6.72	7.70	5.96	6.53	CN(C)C1CCN(C(=O)c2ccc(Nc3ncc4ccn(-c5cccc(NS(=O)(=O)C(C)(C)C)c5)c4n3)cc2F)CC1
6.62	6.81	6.50	7.05	6.64	7.94	7.24	6.99	CN1CCC(NC(=O)c2ccc(Nc3ncc4ccn(-c5cccc(NS(=O)(=O)C(C)(C)C)c5)c4n3)cc2F)CC1
6.82	6.60	5.80	6.30	6.20	7.92	6.38	7.17	CC(C)(C)S(=O)(=O)Nc1cccc(-n2ccc3cnc(Nc4ccc(N5CCNCC5)cc4)nc32)c1 [drawing 283]
